In brackets after ≈: the same amount, converted by molar mass. Entries after “also recorded” stand apart in the source; their conditions may differ. Where two headings read alike, the source gives them in different places. Blank lines part the entries; values can stand above or below the compound they belong to.
Columns and labels:
[1] = Effect of pH of fermented media on extracted content of M2 and M3 (stability); assay type: physicochemical; settings: for stability at alkaline condition: pH 8.0 and 10.0
Experimental: Lastly, the fermented media was adjusted to pH 2.0, 5.0, 6.5, 7.0, 8.0 and 10.0 using HCl or NaOH. Subsequently, 3 extractions were conducted, and the sample was dried, weighed and analyzed using HPLC. The amount of extracted metabolites were compared and used to evaluate the effect of pH on extraction.

[2] = tested on: differentiating 3T3-L1 adipocytes; experiment: Oil Red O staining, lipid accumulation; assay type: cell-based, mouse; settings: for effect on intracellular lipid accumulation: various concentrations, Oil Red O at day 8; for intracellular lipid content: 15 μM; for intracellular lipid content / lipid formation / accumulation reduced to: relative to positive control; for inhibition at 50 µM: Mus musculus, 3T3-L1
Experimental: Two days after confluence, designated as day 0, adipocyte differentiation was initiated by culturing the cells for three days in differentiation medium (DM) which contained 10 μg/mL insulin, 0.5 mM IBMX, and 1 μM dexamethasone in complete culture medium. At day 3, the medium was replaced with DMEM, containing 10 μg/mL insulin. The medium was changed every two days until day 8. Cells were harvested on day 3 or day 8.
(§1) For treatment, nobiletin and the mixture of 6- and 7-OH-nobiletin (M67N) in a 1:49 ratio were first dissolved in dimethyl sulphoxide (DMSO) to make stock solution (5 mM to 100 mM). (FIG. 20) The stock solution was then diluted by 1000 times with culture medium to designated concentrations. Cells cultured in full DMEM was set as negative control while cells treated with DM with 0.1% DMSO as positive control.
On day 8, cell layers were washed with 1×PBS and fixed with 10% paraformaldehyde (Sigma, St. Louis, MO, USA). After 15 minutes' fixation, the medium in each well was decanted and placed in a fume hood for complete dryness. Afterwards, cells were subjected to Oil Red O staining for 30 min, which was followed by immediate rinse in water. The intracellular lipid droplets were checked and pictures were captured on Olympus FSX100 Microscope. For the quantification of intracellular lipids, dyes were dissolved in 4% NP-40/isopropanol and the absorbance was measured at 520 nm by a microplate reader.

3T3-L1 preadipocytes = experiment: MTT assay, pre-confluent cell proliferation; assay type: cell-based, mouse
Experimental: (§2) 3T3-L1 cells were purchased from American Type Culture Collection (ATCC, Rockville, MD) and maintained in MEME media with 10% FBS 1% penicillin/streptomycin (GIBCO, Paisley, UK) in a humidified atmosphere of 5% CO2 in air at 37° C. Cells were passaged by using 0.05% (vol) Trypsin and replated in 55-cm^2 dishes at a density of 1*10^4 cells/cm^2 until confluence.
as §1
(§3) 3T3-L1 cells were seeded on 96-well plate at density of 1×10^4 cells/well and incubated overnight for cell attachment. For measuring pre-confluent cell proliferation, cells were cultivated for 36 hours and full MEME with or without nobiletin or M67N was used. For measuring post-confluent cell proliferation during first three days of differentiation, cells were switched to DM with different concentrations of nobiletin or M67N for 72 hours. At the end of each treatment, cells were washed with PBS three times. MTT ([…]) was added at concentration of 0.5 mg/mL to the cells. After a 3-hour incubation, the medium was decanted from each well and 150 μL DMSO was added to dissolve the formed formazan crystals on a shaker. When the crystal was completely dissolved, the absorbance at 570 nm was measured. Cell viability was interpreted as the percentage (%) of the readout of treated cells divided by that of control. Six repeats were carried out for each concentration.
(§4) 3T3-L1 cells were seeded on 96-well plate at density of 1×10^4 cells/well and were incubated overnight for cell attachment. For measuring pre-confluent cell proliferation, full MEME with or without nobiletin or 6-OH-nobiletin, or 7-OH-nobiletin was used and cells were cultivated for 36 hours. For measuring post-confluent cell proliferation during the first three days of differentiation, cells were treated after 2 days of confluence. Specifically, cells were switched to differentiation medium (DM) with different concentrations of targeted compounds for 24 hours. At the end of each treatment, cells were washed with PBS three times followed by the addition of 100 μL MTT at concentration of 0.5 mg/mL. After 3 hours' incubation, the medium in each well were decanted while 150 μL DMSO was added to dissolve the formed formazan crystals at a shaker. When the crystals were completely dissolved, the absorbance of at 590 nm was measured. Cell viability was interpreted as the percentage (%) of the readout of treated cells divided by that of control. Five repeats were carried out for each concentration.

[3] = tested on: post-confluent 3T3-L1 cells; settings: 3T3-L1 preadipocytes; Hadrich & Sayadi, 2018; cited from earlier work
3T3-L1 cells [4] = settings: 3T3-L1 preadipocytes; Hadrich & Sayadi, 2018; cited from earlier work
[5] = Water solubility of nobiletin / nobiletin-HMS dispersion; assay type: physicochemical; settings: 25 °C
Experimental: To check the water solubility of nobiletin in the nobiletin-HMS dispersion system, an excess of the media-milled nobiletin powder was dispersed into distilled water and agitated thoroughly for 24 hours at room temperature to reach full saturation.

[6] = Solubility of nobiletin in DMSO; assay type: physicochemical; settings: organic solvent or mixture, read-out: maximal solubility in DMSO
[7] = MTT assay, pre-confluent cell proliferation; assay type: cell-based, mouse; settings: mouse, pre-confluent 3T3-L1 preadipocytes
Experimental: as §2, §1, §3, §4

[8] = tested on: post-confluent 3T3-L1 cells; experiment: MTT assay, post-confluent cells (mitotic clonal expansion); assay type: cell-based, mouse; settings: 5 μM to 25 μM
Experimental: as §3, §4

[9] = as above; assay type: cell-based, mouse; settings: mouse, post-confluent 3T3-L1 cells, percent of control, read-out: cell viability
Experimental: as §3, §4

FAS = experiment: Immunoblotting, FAS expression; assay type: cell-based, mouse; settings: late phase treatment group, day 8
Experimental: (§5) Primary antibodies which include AMPK-amAb, and Phospho-AMPKa(p-AMPKa) (Thr172) mAb, Acetyl-CoA Carboxylase (ACC) mAb, fatty acid synthase mAb RAs-related Nuclear protein (Ran) pAb, PPARc mAb, and C/EBPa pAb were all obtained from Cell Signaling Technology (Danvers, MA, USA). They were diluted by 1000 times for immunoblotting analyses.
(§6) At day 3 or day 8, cells are harvested with scraper and homogenized with lysis buffer containing 0.5 mM PMSF, 1 mM mini-complete protease inhibitor cocktail (Sigma, St. Louis, MO, USA) and phosphatase inhibitor cocktail (Sigma, St. Louis, MO, USA). Lysates are syringed with 26 gauge ½ in. needles on ice and then applied for centrifugation at 14,000g for 15 min at 4° C. Protein concentration of cell lysates are determined by using Protein and Protein Broad Range (BR) Assay Kits (Thermofisher, Waltham, MA USA) according to the venture's protocol. Lysates are then stored at −80° C. or immediately are subjected to sodium dodecyl sulfate polyacrylamide gel electrophoresis (SDS-PAGE). For the SDS-PAGE, cell lysates are mixed with loading buffer and heated at 95° C. for 5 min prior to electrophoresis. […] Quantification is performed by measuring band intensity using ImageJ software and calculating the ratio of protein of interesting to RAN the internal loading control.

AMPK = experiment: Immunoblotting, AMPK and p-AMPK; assay type: cell-based, mouse; settings: early and terminal differentiation processes
Experimental: as §5, §6

3T3-L1 cells [10] = experiment: Flow cytometry with PI staining, cell cycle distribution; assay type: cell-based, mouse
Experimental: 3T3-L1 cells were seeded in six-well plates at a density of 3-5×10^5/well. After 2 days of confluency, cells were treated with DM in the absence or presence of several doses of nobiletin or […] for 24h. Both detached and adherent cells were harvested by trypsinization and washed with phosphate buffered saline (PBS). Cells were fixed with 70% ice cold ethanol and placed at 4° C. overnight. After removal of ethanol, cells were stained with propidium iodide containing RNAse ((Carlsbad, CA)) for 30 min in the dark. Fluorescence cells analysis was carried out by using an Accuri C6 flow cytometer. Data were processed using Flowjo_10 software. Each experiment was performed 3 times to reduce variance.

PPARγ = experiment: Immunoblotting, PPARγ expression; assay type: cell-based, mouse; settings: early treatment, day 3
Experimental: as §5, §6

C/EBPα = experiment: Immunoblotting, C/EBPα expression; assay type: cell-based, mouse; settings: early treatment, day 3
Experimental: as §5, §6

ACC = experiment: Immunoblotting, ACC expression; assay type: cell-based, mouse; settings: late phase treatment group, day 8
Experimental: as §5, §6

[11] = fermented media at pH 2.0 (first of four values, pH 2.0 to 7.0)
[12] = fermented media at pH 5.0 (second of four values)
[13] = fermented media at pH 6.5 (third of four values)
[14] = fermented media at pH 7.0 (fourth of four values)

total amount of extracted metabolite [1, 11]: 46.5 ± 1.3 µg/mL
total amount of extracted metabolite [1, 12]: 47.5 ± 1.9 µg/mL
total amount of extracted metabolite [1, 13]: 47.6 ± 0.7 µg/mL
total amount of extracted metabolite [1, 14]: 46.9 ± 1.5 µg/mL
content of extracted metabolite ([1]; pH 8.0): 39.2 ± 1.8 µg/mL
stability at alkaline condition [1]: not stable at alkaline condition
content of extracted metabolite ([1]; pH 10.0): 11.7 ± 0.6 µg/mL
Structure (SMILES): COc1ccc(-c2cc(=O)c3c(OC)c(OC)c(O)c(OC)c3o2)cc1OC [7-OH-nobiletin, 7-hydroxy-5,6,8,3′,4′-pentamethoxyflavone]
effect on intracellular lipid accumulation [2]: obvious suppressive effect on intracellular lipid accumulation
effect on cell proliferation (3T3-L1 preadipocytes; even at 100 μM): did not present significant effect on cell proliferation

Structure (SMILES): O=c1cc(-c2ccc(O)cc2)oc2cc(O[C@@H]3O[C@H](CO)[C@@H](O)[C@H](O)[C@H]3O)cc(O)c12 [apigetrin]
decrease of cell viability [3]: 50%
cell cycle arrest (3T3-L1 cells [4]): arrest 3T3-L1 preadipocytes at G1 phase

solubility [5]: 9.2 µg/mL (≈ 22.9 µM)
solubility [6]: ≤ 18000 µg/mL
Structure (SMILES): COc1ccc(-c2cc(=O)c3c(OC)c(OC)c(OC)c(OC)c3o2)cc1OC [Nobiletin, 5,6,7,8,3′,4′-hexamethoxyflavone, reference compound]
intracellular lipid content [2]: 101.254±6.096%
lipid formation / accumulation reduced to ([2]; 50 μM): 45.2±4.9%
inhibition at 50 µM ([2]; 50 μM, read-out: reduction of lipid formation / inhibition of lipid accumulation): 50%
effect on intracellular lipid accumulation [2]: decreased the intracellular lipid content in a dose-dependent way; also recorded: obvious suppressive effect on intracellular lipid accumulation
cytotoxicity at 36 h, 100 μM ([7]; 100 μM, read-out: cell viability reduced by): 50%
inhibitory effect on the proliferation of preadipocytes (3T3-L1 preadipocytes; up to 75 μM): did not show any inhibitory effect; also recorded: did not demonstrated any inhibition effect

total amount of extracted metabolite [1, 11]: 123.9 ± 4.6 µg/mL
total amount of extracted metabolite [1, 12]: 125.6 ± 3.2 µg/mL
total amount of extracted metabolite [1, 13]: 125.8 ± 1.9 µg/mL
total amount of extracted metabolite [1, 14]: 125.9 ± 1.2 µg/mL
content of extracted metabolite ([1]; pH 8.0): 110 ± 1.7 µg/mL
stability at alkaline condition [1]: not stable at alkaline condition
content of extracted metabolite ([1]; pH 10.0): 109 ± 2.6 µg/mL
Structure (SMILES): COc1ccc(-c2cc(=O)c3c(OC)c(O)c(OC)c(OC)c3o2)cc1OC [6-OH-nobiletin, 6-hydroxy-5,7,8,3′,4′-pentamethoxyflavone]
change of cell viability [8]: no significant difference
viability at 24 h, 35 µM ([9]; 35 μM): 83.1 ± 6.2%
viability at 24 h, 50 µM ([9]; 50 μM): 85.6 ± 5.3%
expression of FAS (FAS): significantly suppressed their expression
expression and phosphorylation of AMPK (AMPK): greatly enhanced
intracellular lipid content [2]: 69.8±2.1%
decrease of lipid content ([2]; 50 μM, early phase treatment (day 0 to day 3)): 50%
lipid formation / accumulation reduced to ([2]; 50 μM): 24.3±4.2%
inhibition at 50 µM ([2]; 50 μM, late-phase treatment (day 4 to day 8), read-out: inhibition of lipid accumulation): 72%
effect of early phase and late phase treatment on lipid accumulation ([2]; early phase day 0-3, late phase day 4-8): suppressed the lipid accumulation in a dose-dependent matter
effect on intracellular lipid accumulation [2]: obvious suppressive effect on intracellular lipid accumulation
cells in S phase (3T3-L1 cells [10]; 5 μM): 42%
preadipocytes in G2/M phase (3T3-L1 cells [10]; 5 μM): 40%
population in G2/M phase (3T3-L1 cells [10]; 50 μM): 20%
population in S phase (3T3-L1 cells [10]; 50 μM): 60%
effect on cell cycle progression (3T3-L1 cells [10]; serial doses in differentiation medium): significantly delayed the progression of the cell cycle and increased the S population in a dose-dependent manner
expression level of PPARγ (PPARγ): dose-dependently suppressed
production of C/EBPα (C/EBPα): greatly reduced
viability at 36 h, 75 µM ([7]; 75 μM, percent of control): ~82%
viability at 36 h, 100 µM ([7]; 100 μM, percent of control): ~65%
expression of ACC (ACC): significantly suppressed their expression

— US20250032446A1, “METHODS AND COMPOSITIONS FOR THE BIOSYNTHESIS AND USE OF DEMETHYLATED POLYMETHOXY FLAVONES” (RUTGERS, THE STATE UNIVERSITY OF NEW JERSEY, priority 2021, published 2025)
